Here are results for two substances from patent US10633417B2 (priority 2013, dated 2020).

Experiment [1] has as its target rat α9α10 nAChR (Rattus norvegicus, UniProt P43144+Q9JLB5). Conditions: cited from earlier work.
The target of experiment [2] is human α9 (Ile56 to Thr) α10 nAChR (Homo sapiens, UniProt Q9GZZ6+Q9UGM1, I86T). It counts as cell-based.
Experiment [3] has as its target rat α9 (Thr56 to Ile) α10 nAChR (Rattus norvegicus, UniProt P43144+Q9JLB5, T86I). It is filed as cell-based.
Experiment [4] relates to Sprague-Dawley rats. Conditions: rat, in vivo.
For experiment [5], the system named is Sprague-Dawley rats. Particulars: rat, in vivo. The source holds these as a separate data set.
Experiment [6] concerns Sprague-Dawley rats. Particulars: rat, in vivo. The source holds these as a separate data set.
The subject of experiment [7] is Sprague-Dawley rats. Particulars: rat, in vivo. The source holds these as a separate data set.
Experiment [8] has as its system Sprague Dawley rats. Particulars: rat, in vivo.
Experiment [9] has as its system Sprague Dawley rats. Particulars: rat, in vivo. The source holds these as a separate data set.

Chain of rat α9α10 nAChR (P43144 26-479 limits assumed): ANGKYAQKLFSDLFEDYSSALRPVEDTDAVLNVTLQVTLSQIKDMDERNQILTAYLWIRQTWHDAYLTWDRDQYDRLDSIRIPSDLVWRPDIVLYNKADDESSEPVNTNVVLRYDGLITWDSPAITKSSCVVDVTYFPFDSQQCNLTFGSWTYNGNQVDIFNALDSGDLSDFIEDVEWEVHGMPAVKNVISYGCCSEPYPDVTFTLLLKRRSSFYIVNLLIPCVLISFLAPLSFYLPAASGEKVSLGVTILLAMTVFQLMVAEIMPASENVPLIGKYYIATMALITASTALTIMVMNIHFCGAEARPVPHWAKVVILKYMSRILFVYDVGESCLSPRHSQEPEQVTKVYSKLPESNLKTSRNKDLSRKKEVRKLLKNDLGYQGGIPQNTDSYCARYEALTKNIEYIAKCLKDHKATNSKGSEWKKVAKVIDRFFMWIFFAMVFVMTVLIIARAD
Chain of rat α9α10 nAChR (Q9JLB5 25-447 limits assumed): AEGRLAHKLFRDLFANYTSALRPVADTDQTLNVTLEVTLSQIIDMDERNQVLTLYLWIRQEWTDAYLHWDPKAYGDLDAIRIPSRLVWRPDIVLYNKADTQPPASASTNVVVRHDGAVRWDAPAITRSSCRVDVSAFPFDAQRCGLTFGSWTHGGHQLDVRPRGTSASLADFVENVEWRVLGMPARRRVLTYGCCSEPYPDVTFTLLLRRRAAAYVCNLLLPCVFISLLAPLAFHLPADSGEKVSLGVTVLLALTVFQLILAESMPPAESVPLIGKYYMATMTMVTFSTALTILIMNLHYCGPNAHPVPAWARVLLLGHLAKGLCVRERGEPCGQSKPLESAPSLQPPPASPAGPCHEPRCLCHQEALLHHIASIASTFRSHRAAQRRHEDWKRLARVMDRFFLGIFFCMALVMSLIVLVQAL
Chain of human α9 (Ile56 to Thr) α10 nAChR (Q9UGM1 26-479 I86T limits assumed, stated change not applied): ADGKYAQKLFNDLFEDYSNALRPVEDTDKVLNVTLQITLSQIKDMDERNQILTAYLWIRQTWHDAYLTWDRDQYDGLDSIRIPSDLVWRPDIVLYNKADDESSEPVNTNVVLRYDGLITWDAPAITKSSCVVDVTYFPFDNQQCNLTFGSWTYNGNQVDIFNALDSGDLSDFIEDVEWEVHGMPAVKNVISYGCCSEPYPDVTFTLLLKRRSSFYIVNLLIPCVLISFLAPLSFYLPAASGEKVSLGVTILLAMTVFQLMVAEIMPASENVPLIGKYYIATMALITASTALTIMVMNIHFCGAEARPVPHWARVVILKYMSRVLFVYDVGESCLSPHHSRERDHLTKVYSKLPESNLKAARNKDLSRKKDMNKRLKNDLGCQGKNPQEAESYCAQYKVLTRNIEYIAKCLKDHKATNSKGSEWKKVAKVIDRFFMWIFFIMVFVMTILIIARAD
Chain of human α9 (Ile56 to Thr) α10 nAChR (Q9GZZ6 25-450 limits assumed, stated change not applied): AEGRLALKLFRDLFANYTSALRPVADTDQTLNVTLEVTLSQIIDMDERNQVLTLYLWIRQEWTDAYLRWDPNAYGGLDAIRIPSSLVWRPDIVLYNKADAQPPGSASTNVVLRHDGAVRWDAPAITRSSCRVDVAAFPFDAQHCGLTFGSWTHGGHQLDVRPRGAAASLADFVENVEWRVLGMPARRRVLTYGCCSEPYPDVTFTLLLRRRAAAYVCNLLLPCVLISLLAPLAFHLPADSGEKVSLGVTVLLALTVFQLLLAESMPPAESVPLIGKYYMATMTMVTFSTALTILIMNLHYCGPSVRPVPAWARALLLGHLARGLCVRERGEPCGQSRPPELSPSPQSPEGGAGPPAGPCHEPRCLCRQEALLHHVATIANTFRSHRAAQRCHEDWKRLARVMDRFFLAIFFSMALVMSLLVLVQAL
Chain of rat α9 (Thr56 to Ile) α10 nAChR (P43144 26-479 T86I limits assumed, stated change not applied): as the sequence (P43144 26-479 limits assumed) above, with T61I counted along it
Chain of rat α9 (Thr56 to Ile) α10 nAChR (Q9JLB5 25-447 limits assumed, stated change not applied): as the sequence (Q9JLB5 25-447 limits assumed) above

With GCCSDPRCRYRCR [RgIA], in experiment [1], the “potency on the human versus rat α9α10 nAChR” value was about 170 fold. Further, in experiment [2], the “RgIA potency on human receptor with α9 Ile56 to Thr” value was “increase in RgIA potency on the human receptor to levels found in rat” and the “increase in RgIA potency on human receptor with α9 Ile56 to Thr” value was 2 log. Further, in [3], the “RgIA potency on rat receptor with Thr56 to Ile in α9” value was “reduction in RgIA potency on the rat receptor to levels found with the human receptor”. For the same substance, in experiment [4], the “efficacy on mechanical hyperalgesia 24 h after injection” value was “still significant”, the “pain threshold (mechanical hyperalgesia) 30 min after injection” value was “acutely increased pain threshold” and the “prevention of OXA-induced mechanical hyperalgesia” value is recorded as “significantly prevented”. Besides, in experiment [5], the “analgesic effect in OXA chemotherapy induced neuropathic pain” value was “significant analgesic effects on days 14 and 21”. Besides, in experiment [6], the “prevention of OXA-induced cold allodynia, day 7” value is listed as “able to prevent OXA-induced cold allodynia”; the “prevention of OXA-induced cold allodynia, day 14 and 21” value was “able to prevent OXA-induced cold allodynia”. In experiment [7], the “activity on mechanical allodynia (von Frey), days 14 and 21” value is reported as “active”; the “analgesic effect (von Frey), day 7, 24 h later” value is listed as “not observed”. In [8], the “burn-induced thermal hyperalgesia (Hargraves method)” value was “significantly reduced” and the “thermal hyperalgesia in the FTTI model, acute treatment” value is listed as “effectively reduces”. Moreover, in experiment [9], the “mechanical allodynia in the FTTI model, acute treatment” value is reported as “effectively reduces”.

Take Vc1.1: the “potency on the human versus rat α9α10 nAChR” value in [1] is “significantly less potent”.
